Source: patent US7459284B2, “Chemiluminescent acridinium compounds and analogues thereof as substrates of hydrolytic enzymes” (Siemens Healthcare Diagnostics Inc., priority 1999, dated 2008)

Key:
alkaline phosphatase [1] = molecular target: T1, alkaline phosphatase (Bos taurus, UniProt P19111); experiment: Alkaline phosphatase assay using 4′-Phos-AE (17) as chemiluminescent substrate; type: biochemical; details: 0.1 mM substrate, pH 9 Tris, 3-4 hours room temperature; 0.1 ml reaction volume; measuring time 0.3 s
Procedure: Treatment of a solution of 4′-Phos-AE (17, 0.1 mM,) in 100 mM Tris pH 9, 1 mM MgCl2 with varying concentrations of alkaline phosphatase was carried out. The reactions were incubated for 3-4 hours at room temperature and were then sequentially diluted 10^4-fold into ‘flash buffer’ which contains 10 mM phosphate pH 8 with 150 mM NaCl, 0.1% BSA and 0.05% sodium azide. Chemiluminescence of a 25 μL solution was measured on a Bayer Diagnostics' Magic Lite Ananlyzer (MAL1) equipped with a BG38 filter. A measuring time of 0.3 s was employed. Evaluation of the chemiluminescent activity of the reactions indicated a steady decrease in total chemiluminesence with increasing concentrations of enzyme. Thus, as the concentration of enzyme is increased, a greater proportion of the fast-emitting substrate 4′-Phos-AE is converted to the slow-emitting product 4′-OH-AE (18) leading to an overall decrease in light output (at a short measuring time). Alkaline phosphatase was easily detected at 5×10^−17 moles (0.1 ml reaction volume) in this assay.

[2] = Light emission kinetics of substrate vs product; type: physicochemical; details: short measuring times (0.5-0.3 s)
From the text: One of the more preferred chemiluminescent acridinium substrates of Formula XIII is compound 4′-Phos-AE (17).

[3] = Light emission spectra by Fast Spectral Scanning System (FSSS); type: physicochemical
Procedure: The light emission spectra of compounds 1˜12 and 15˜18 were determined by a Fast Spectral Scanning System (FSSS) of Photo Research (a division of Kollmorgen Corp.) of Burbank, Calif., U.S.A. The experiment was carried out in a dark room. Each compound was dissolved in acetonitrile or N,N-dimethylformamide. The resulting concentrate was diluted with the same solvent to form the working solution, which upon flashing gave a light emission with an adequate intensity. A typical experiment utilized 10˜100 μg or more of the sample in 500 μl of the solvent contained in a 13×100 mm borosilicate test tube. The tube was placed on a test tube rack raised to a proper height. A piece of aluminum foil was placed on the back of the tube to enhance the detectability of the emitted light. The FSSS optical head was placed in front of the tube at an approximate distance of about 130 mm with its lens focused on the liquid in the tube. The sample solution was first treated with 0.35 ml of the Flashing Reagent #1 (Bayer Diagnostics) containing 0.1 N HNO3 and 0.5% H2O2. The room was then darkened, and 0.35 ml of the Flashing Reagent #2 (Bayer Diagnostics) containing 0.25 N NaOH and 0.5% ARQUAD was added to the reaction mixture immediately. (See U.S. Pat. No. 4,927,769, which is commonly assigned and incorporated herein by reference.) The light which was generated instantaneously following the addition of the Reagent #2 was recorded by FSSS for 5 seconds starting from about one second before the Reagent #2 was added.

alkaline phosphatase [4] = molecular target: T1, alkaline phosphatase; experiment: Enzymatic conversion of substrate by alkaline phosphatase (HPLC analysis); type: biochemical; details: alkaline aqueous medium; about 1 hour
Procedure: A 1 mM DMF solution of the acridinium 3-enol-phosphate (13) was mixed with 150 μL of 100 mM Tris pH 9 also containing 1 mM MgCl2. Alkaline phosphatase (5 μl of a 2 mg/ml solution) was added and the reaction was incubated at room temperature for ˜1 hour. […] The product was isolated by semi-preparative HPLC using a 7.8×300 mm, C18 column. MALDI-TOF MS of the product indicated this was indeed the keto product (14): m/z 521.36 obs. (520.56 calc.).
A 20 μL DMF solution of the acridan (15) (1.7 mM) was combined with 180 μl of 0.15 M 2-amino-2-methyl-1-propanol pH 10.3 also containing 1 mM magnesium acetate. A clear blue solution was obtained (0.17 mM substrate), which was then treated with alkaline phosphatase (10^−10 moles). The blue color was discharged instantly. […] The reaction mixture was then evaluated by the FSSS to determine the light emission spectrum of the product, which is shown in FIG. 2N. The product was isolated by semi-preparative HPLC. […] (521.56 calc.).

T1 sequence (P19111 20-506): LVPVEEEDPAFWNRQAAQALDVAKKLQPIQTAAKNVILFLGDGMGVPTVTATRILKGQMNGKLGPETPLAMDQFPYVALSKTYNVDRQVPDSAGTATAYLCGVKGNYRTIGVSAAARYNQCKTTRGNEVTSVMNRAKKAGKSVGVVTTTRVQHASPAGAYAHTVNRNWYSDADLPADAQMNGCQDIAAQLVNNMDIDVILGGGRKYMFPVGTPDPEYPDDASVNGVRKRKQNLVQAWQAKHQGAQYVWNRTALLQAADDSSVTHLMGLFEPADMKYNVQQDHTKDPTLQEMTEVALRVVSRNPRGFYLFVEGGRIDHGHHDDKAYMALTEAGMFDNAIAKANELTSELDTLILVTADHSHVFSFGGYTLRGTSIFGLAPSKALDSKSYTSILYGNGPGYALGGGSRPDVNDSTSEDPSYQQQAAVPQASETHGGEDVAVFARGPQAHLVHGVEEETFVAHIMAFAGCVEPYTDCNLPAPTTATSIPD

In the case of C[n+]1c2ccccc2c(C(=O)Oc2ccc(OP(=O)(O)O)cc2)c2ccccc21 [Compound 17, 4′-phosphophenyl 10-methyl acridinium-9-carboxylate trifluoromethanesulfonate], the “level of alkaline phosphatase detected” value (alkaline phosphatase [1]) is reported as 5e-17 mol, the “speed of light emission relative to product 18” value [2] is reported as roughly 190 times and the “Emission Maximum” value ([3]; FSSS, hydrogen peroxide in strong alkaline solution) is reported as 436 nm. The “Emission Range” value ([3]; spectral region with signal intensity above 5% of peak height, FSSS scanning limit 380-780 nm, flashed with 0.1 N HNO3/0.5% H2O2 then 0.25 N NaOH/0.5% ARQUAD) was 410-540 nm and the “conversion by alkaline phosphatase” value (alkaline phosphatase [4]) was “readily converted”.
